Where a name gives a salt, the structure may show the parent alone.
Biological target: T1, human GPR40 (Homo sapiens, UniProt O14842)
T1 construct: expressed in transfected cells; host or cells: CHO cell line stably expressing human GPR40
Assay: Determination of EC50 for human GPR40: intracellular calcium change by FLIPR in CHO cells stably expressing human GPR40
Type: cell-based
Conditions: CHO cell line stably expressing human GPR40, changes in intracellular calcium concentration, Fluo3-AM, read-out: EC50 (Receptor Function Modulating Action On GPR40)
Description: Determination of EC50 of the Compound of the Present Invention for Human GPR40
For determination of EC50, CHO cell line that stably expressed human GPR40 was used. Unless otherwise indicated, the CHO cell line was cultured using α-MEM medium (Invitrogen) containing 10% fetal calf serum (Invitrogen).
The cells cultured to nearly confluent were rinsed with PBS (Invitrogen) on the previous day of the assay, peeled off with 0.05% Trypsin-EDTA solution (Invitrogen) and recovered by centrifugation. The number of the obtained cells was counted, and the cells were diluted such that 3×10^5 cells were contained per 1 mL of the medium, dispensed to a black welled 96-well plate (coster) by 100 μL per well and cultured overnight in a CO2 incubator. Various test compounds were added to the CHO cells thus prepared, and the changes in the intracellular calcium concentration were measured using FLIPR (Molecular Device). The below-mentioned pre-treatment was applied to measure changes in the intracellular calcium concentration by FLIPR.
First, an assay buffer for adding a fluorescence dye Fluo3-AM (DOJIN) to the cells, or for washing the cells immediately before FLIPR assay was prepared. To a solution of HBSS (Invitrogen, 1000 mL) to which 1M HEPES (pH 7.4, DOJIN, 20 mL) added (hereinafter HBSS/HEPES solution) was added a solution (10 mL) obtained by dissolving probenecid (Sigma, 710 mg) in 1N NaOH (5 mL), and adding and mixing an HBSS/HEPES solution (5 mL), and the resulting solution was used as an assay buffer. Next, Fluo3-AM (50 μg) was dissolved in dimethylsulfoxide (Wako, 21 μL), and an equivalent amount of 20% pluronic acid (Molecular Probes) was added and mixed. The solution was added to the assay buffer (10.6 mL) supplemented with fetal vovine serum (105 μL) to give a fluorescence dye solution. The medium of the CHO cells inoculated to the black welled 96-well plate on the previous day of assay was removed, the fluorescence dye solution was immediately dispensed by 100 μL per well and the cells were cultured in a CO2 incubator for 1 hr to allow intake of the fluorescence dye by the cells. The cells after the culture were washed with the above-mentioned assay buffer and set on FLIPR. The test compound was diluted with dimethylsulfoxide in advance, dispensed to polypropylene 96-well plate (sample plate) by […], and cryopreserved at −20° C. To the thawed sample plate was added an assay buffer containing 0.015% CHAPS (DOJIN) by 198 μL, and simultaneously set on FLIPR together with the cell plate. After the aforementioned pre-treatment, changes in the intracellular calcium concentration upon addition of various test compounds as measured by FLIPR. Based on the results, a dose-response curve of each test compound was formed and EC50 was calculated.

T1 sequence (O14842 whole entry): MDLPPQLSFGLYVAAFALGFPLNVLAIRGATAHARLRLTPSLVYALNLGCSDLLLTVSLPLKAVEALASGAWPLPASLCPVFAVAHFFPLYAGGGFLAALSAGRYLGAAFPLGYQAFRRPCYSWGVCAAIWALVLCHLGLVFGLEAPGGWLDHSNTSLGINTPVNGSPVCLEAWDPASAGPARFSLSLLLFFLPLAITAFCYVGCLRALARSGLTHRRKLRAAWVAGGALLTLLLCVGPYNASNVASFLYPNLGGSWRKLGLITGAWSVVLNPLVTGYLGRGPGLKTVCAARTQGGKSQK

EC50, < 0.01 µM:
Cc1cccc(C)c1-c1cccc(CNc2ccc(CCC(=O)O)cc2)c1 [Example 2, 3-(4-{[(2′,6′-dimethylbiphenyl-3-yl)methyl]amino}phenyl)propanoic acid]

EC50, < 1 µM:
Cn1ncc(COc2ccc(CNc3ccc(CCC(=O)O)cc3)cc2)c1-c1ccc(F)cc1 [Example 47, 3-{4-[(4-{[5-(4-fluorophenyl)-1-methyl-1H-pyrazol-4-yl]methoxy}benzyl)amino]phenyl}propanoic acid]
Cc1cc(OCC(=O)O)cc(C)c1-c1cccc(CNc2ccc(CCC(=O)O)c(F)c2)c1 [Example 100, 3-[4-({[4′-(carboxymethoxy)-2′,6′-dimethylbiphenyl-3-yl]methyl}amino)-2-fluorophenyl]propanoic acid]
CC(C)COc1ccc(CNc2ccc(CCC(=O)O)cc2)cc1CN1c2ccccc2C=CC1(C)C [Example 138, 3-[4-({3-[(2,2-dimethylquinolin-1(2H)-yl)methyl]-4-isobutoxybenzyl}amino)phenyl]propanoic acid]

EC50, < 0.1 µM:
O=C(O)CCc1ccc(NCc2ccc(Cn3c(-c4ccccc4)cc4ccccc43)cc2)cc1 [Example 12, 3-[4-({4-[(2-phenyl-1H-indol-1-yl)methyl]benzyl}amino)phenyl]propanoic acid hydrochloride]
O=C(O)CCc1ccc(NCc2ccc(CN(CCc3ccccc3)c3nc(-c4ccccc4)cs3)cc2)cc1 [Example 18, 3-{4-[(4-{[(2-phenylethyl)(4-phenyl-1,3-thiazol-2-yl)amino]methyl}benzyl)amino]phenyl}propanoic acid]
CCCN(Cc1ccc(CNc2ccc(CCC(=O)O)cc2)cc1)c1nc(-c2ccccc2)cs1 [Example 21, 3-{4-[(4-{[(4-phenyl-1,3-thiazol-2-yl)(propyl)amino]methyl}benzyl)amino]phenyl}propanoic acid]
Cc1ccc2ccccc2c1-c1cccc(CNc2ccc(CCC(=O)O)cc2)c1 [Example 26, 3-(4-{[3-(2-methyl-1-naphthyl)benzyl]amino}phenyl)propanoic acid hydrochloride]
Cc1cc(OCc2ccccc2)cc(C)c1-c1cccc(CNc2ccc(CCC(=O)O)cc2)c1 [Example 30, 3-[4-({[4′-(benzyloxy)-2′,6′-dimethylbiphenyl-3-yl]methyl}amino)phenyl]propanoic acid hydrochloride]
Cc1cc(OCC2CC2)cc(C)c1-c1cccc(CNc2ccc(CCC(=O)O)cc2)c1 [Example 33, 3-[4-({[4′-(cyclopropylmethoxy)-2′,6′-dimethylbiphenyl-3-yl]methyl}amino)phenyl]propanoic acid hydrochloride]
CCOCCOc1cc(C)c(-c2cccc(CNc3ccc(CCC(=O)O)cc3)c2)c(C)c1 [Example 37, 3-[4-({[4′-(2-ethoxyethoxy)-2′,6′-dimethylbiphenyl-3-yl]methyl}amino)phenyl]propanoic acid hydrochloride]
CCOCCOc1cc(C)c(-c2cccc(CNc3ccc(CCC(=O)O)c(F)c3)c2)c(C)c1 [Example 40, 3-[4-({[4′-(2-ethoxyethoxy)-2′,6′-dimethylbiphenyl-3-yl]methyl}amino)-2-fluorophenyl]propanoic acid hydrochloride]
O=C(O)CCc1ccc(NCc2ccc(Cn3nc(-c4ccccc4)cc3-c3ccccc3)cc2)cc1 [Example 44, 3-[4-({4-[(3,5-diphenyl-1H-pyrazol-1-yl)methyl]benzyl}amino)phenyl]propanoic acid]
CCOCCOc1cc(C)c(-c2cccc(CNc3ccc(OCC(=O)O)cc3)c2)c(C)c1 [Example 67, [4-({[4′-(2-ethoxyethoxy)-2′,6′-dimethylbiphenyl-3-yl]methyl}amino)phenoxy]acetic acid]
CCOCCOc1ccc(-c2cc(CNc3ccc(CCC(=O)O)cc3)ccc2OCc2ccccc2)cc1 [Example 70, 3-[4-({[6-(benzyloxy)-4′-(2-ethoxyethoxy)biphenyl-3-yl]methyl}amino)phenyl]propanoic acid]
CCOCCOc1cc(C)c(-c2cccc(CNc3ccc4c(c3)OCC4CC(=O)O)c2)c(C)c1 (centres unmarked) [Example 86, [6-({[4′-(2-ethoxyethoxy)-2′,6′-dimethylbiphenyl-3-yl]methyl}amino)-2,3-dihydro-1-benzofuran-3-yl]acetic acid hydrochloride]
CCN(CC)C(=O)COc1cc(C)c(-c2cccc(CNc3ccc(CCC(=O)O)c(F)c3)c2)c(C)c1 [Example 98, 3-{4-[({4′-[2-(diethylamino)-2-oxoethoxy]-2′,6′-dimethylbiphenyl-3-yl}methyl)amino]-2-fluorophenyl}propanoic acid]
Cc1cccc(C)c1-c1cc(CNc2ccc(CCC(=O)O)c(F)c2)cc(OCc2ccccc2)c1 [Example 105, 3-[4-({[5-(benzyloxy)-2′,6′-dimethylbiphenyl-3-yl]methyl}amino)-2-fluorophenyl]propanoic acid methanesulfonate]
CC(C)(C)c1cc(-c2ccccc2)n(Cc2ccc(CNc3ccc(CCC(=O)O)c(F)c3)cc2)n1 [Example 107, 3-[4-({4-[(3-tert-butyl-5-phenyl-1H-pyrazol-1-yl)methyl]benzyl}amino)-2-fluorophenyl]propanoic acid]
CC(C)(C)c1cc(CCc2ccccc2)n(Cc2ccc(CNc3ccc(CCC(=O)O)c(F)c3)cc2)n1 [Example 113, 3-{4-[(4-{[3-tert-butyl-5-(2-phenylethyl)-1H-pyrazol-1-yl]methyl}benzyl)amino]-2-fluorophenyl}propanoic acid methanesulfonate]
CCOCCOc1cc(C)c(-c2cccc(CNc3ccc(CC(F)(F)C(=O)O)cc3)c2)c(C)c1 [Example 117, 3-[4-({[4′-(2-ethoxyethoxy)-2′,6′-dimethylbiphenyl-3-yl]methyl}amino)phenyl]-2,2-difluoropropanoic acid]
CCOCCOc1cc(C)c(-c2cccc(CNc3ccc(CCC(=O)O)cn3)c2)c(C)c1 [Example 120, 3-[6-({[4′-(2-ethoxyethoxy)-2′,6′-dimethylbiphenyl-3-yl]methyl}amino)pyridin-3-yl]propanoic acid methanesulfonate]
Cc1cc(OS(C)(=O)=O)cc(C)c1-c1cccc(CNc2ccc(CCC(=O)O)c(F)c2)c1 [Example 123, 3-{4-[({2′,6′-dimethyl-4′-[(methylsulfonyl)oxy]biphenyl-3-yl}methyl)amino]-2-fluorophenyl}propanoic acid]
CCOCCOc1ccc(-c2cc(CNc3ccc(CCC(=O)O)cc3)ccc2OC(C)C)cc1 [Example 127, 3-[4-({[4′-(2-ethoxyethoxy)-6-isopropoxybiphenyl-3-yl]methyl}amino)phenyl]propanoic acid]
Cc1ccc(COc2ccc(CNc3ccc(CCC(=O)O)c(F)c3)cc2CC(C)C)cc1 [Example 131, 3-[2-fluoro-4-({3-isobutyl-4-[(4-methylbenzyl)oxy]benzyl}amino)phenyl]propanoic acid]
CCOCCOc1ccc(-c2cc(CNc3ccc(CCC(=O)O)c(F)c3)cc3c2OC(C)(C)C3)cc1 [Example 136, 3-{4-[({7-[4-(2-ethoxyethoxy)phenyl]-2,2-dimethyl-2,3-dihydro-1-benzofuran-5-yl}methyl)amino]-2-fluorophenyl}propanoic acid methanesulfonate]
CCS(=O)(=O)CCOc1cc(C)c(-c2cccc(CNc3ccc(CCC(=O)O)c(F)c3)c2)c(C)c1 [Example 146, 3-{4-[({4′-[2-(ethylsulfonyl)ethoxy]-2′,6′-dimethylbiphenyl-3-yl}methyl)amino]-2-fluorophenyl}propanoic acid methanesulfonate]
Cc1cc(OCCCN2CCCC2=O)cc(C)c1-c1cccc(CNc2ccc(CCC(=O)O)c(F)c2)c1 [Example 149, 3-{4-[({2′,6′-dimethyl-4′-[3-(2-oxopyrrolidin-1-yl)propoxy]biphenyl-3-yl}methyl)amino]-2-fluorophenyl}propanoic acid benzenesulfonate]
Cc1cc(OCC2(C)COC2)cc(C)c1-c1cccc(CNc2ccc(CCC(=O)O)c(F)c2)c1 [Example 151, 3-{4-[({2′,6′-dimethyl-4′-[(3-methyloxetan-3-yl)methoxy]biphenyl-3-yl}methyl)amino]-2-fluorophenyl}propanoic acid methanesulfonate]

From patent publication US7786165B2, “Aminophenylpropanoic acid derivative” (Takeda Pharmaceutical Company Limited, priority 2004, dated 2010)
